This is an account of results in patent US9040725B2, “Benzocycloheptane and benzoxepine derivatives” (Janssen Pharmaceutica NV, priority 2008, dated 2015).

One data set concerns NMRI-mice. The experiment in a line: Acceleration of gastric emptying and small intestinal propulsion in NMRI-mice. It counts as in vivo. The following applies: Mus musculus, sc, lowest active dose, subcutaneous, 30 min before phenol red test meal. On the procedure: Male NMRI-mice weighing around 25 gram were fasted for 20 h and had free access to drinking water. Test compounds were administered to the animals by subcutaneous route 30 min before they were given a test meal by oral gavage. The test meal consisted of 0.3 ml of a chocolate nutridrink solution (1.0 kcal/ml) containing phenol red marker (5 mg/ml). Fifteen min after administration of the meal, the mice were sacrificed by CO2 gas inhalation. The phenol red content remaining in the stomach (extracted from the stomach with NaOH) was determined at 557 nm in a spectrophotometer and expressed as extinction units. Small intestinal propulsion was determined as the distance traveled by the phenol red marker through the intestine and expressed as a percentage of total small intestinal length (from the pylorus to the ileo-cecal junction).
The lowest dose that was active for each parameter was noted as the lowest active dose (LAD). Table 12 discloses LAD values.

A further data set deals with T1, GHS1A-receptor (Homo sapiens, UniProt Q92847).
T1 construct: expressed in transfected cells; host or cells: HEK293
T1 sequence (Q92847 whole entry): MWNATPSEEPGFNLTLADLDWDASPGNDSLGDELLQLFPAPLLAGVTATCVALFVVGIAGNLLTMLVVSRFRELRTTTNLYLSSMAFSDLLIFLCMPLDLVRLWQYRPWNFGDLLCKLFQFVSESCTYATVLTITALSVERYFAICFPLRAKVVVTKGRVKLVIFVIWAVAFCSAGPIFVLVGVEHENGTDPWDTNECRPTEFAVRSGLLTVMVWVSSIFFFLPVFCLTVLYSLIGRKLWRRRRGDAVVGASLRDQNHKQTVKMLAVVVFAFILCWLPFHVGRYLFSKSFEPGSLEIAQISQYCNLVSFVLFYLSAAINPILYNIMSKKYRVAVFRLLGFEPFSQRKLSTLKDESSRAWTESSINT
The experiment in a line: Ghrelin-agonism in HEK293 cells (intracellular calcium, FLIPR). Type of data set: cell-based. The following applies: HEK293 cells permanently transfected with GHS1A-receptor, calcium fluorescence (fluo-4 or Kit-3), EC50 in M, read-out: pEC50 (converted). As to the method: One day before the experiment, HEK293 cells, permanently transfected with the gene sequence for expression of the GHS1A-receptor, were seeded in poly-D-Lysine coated 96-well plates with clear bottom, and allowed to grow to […] of confluence on the next day.
Then, cells were incubated with the calcium-sensitive intracellular fluorescent probe fluo-4 or Kit-3 for 1 h at 37° C. Fluorescence representing free intracellular calcium in the cells was measured in a FLIPR-system (excitation at 488 nm, emission>520 nm). Test compounds were added to each well at the desired concentration and the fluorescence signal was simultaneously recorded in all wells. Release of intracellular calcium triggered by activation of the receptors upon addition of the test compound was measured as the fluorescence emitted from the complex of calcium and the fluorescent probe. The drug effect on fluorescence intensity was expressed relative to the maximal fluorescence intensity measured in cells exposed to the calcium-ionophore ionomycin.

Where [1] appears, read: active when >60% of animals had phenol red front beyond 85% of small intestinal length, read-out: LAD (mg/kg) Small intestinal propulsion.
Where [2] appears, read: stomach content 15 min after meal, active when >60% of animals below 0.9 extinction units, read-out: LAD (mg/kg) Gastric emptying.

SMILES strings stand for the structures. Where a name gives a salt, the structure may show the parent alone. Read-outs that look alike come from different tables or passages of the source.

`Cc1ccc(C2CCCc3ccccc3C2(O)CCCN2CCN(C)CC2)cc1` (racemic) (as salt: oxalate) [Compound 33] displayed a melting point of 219 °C.

With `CCN(CC)CCCC1(O)c2ccccc2CCCC1c1ccc(OC)cc1` (racemic) (as salt: oxalate) [Compound 67], the melting point is 153 °C.

The compound `CNCCCC1(O)c2ccccc2CCCC1c1cccc(C)c1` (racemic) (as salt: oxalate) [Compound 22] showed a melting point of 137.4 °C.

Consider `COCCN(C)CCCC1(O)c2ccccc2CCCC1c1ccc(OC)cc1` (racemic) (as salt: oxalate) [Compound 70], for which the melting point came to 132.2 °C.

For the compound `COc1ccc(C2CCCc3ccccc3C2(O)CCCN(C)C)cc1` (racemic) (as salt: oxalate) [Compound 66], the melting point amounted to 100 °C.

For the compound `CCN(CC)CCCC1(O)c2ccccc2CCCC1c1ccc(F)cc1F` (racemic) (as salt: oxalate) [Compound 57], the melting point was found to be 160.3 °C.

As to `CN(C)CCCC1(O)c2ccccc2CCCC1c1ccc(Cl)cc1` (single isomer, unassigned) (as salt: oxalate) [Compound 3], the melting point amounted to 168.7 °C.

`OC1(CCCN2CCCC2)c2ccccc2CCCC1c1ccc(Cl)cc1` (racemic) (as salt: oxalate) [Compound 48] returned a melting point of 236.2 °C.

`OC1(CCCN2CCCCC2)c2ccccc2CCCC1c1ccc(Cl)cc1` (racemic) (as salt: oxalate) [Compound 50] registered a melting point of 201.1 °C.

For `Oc1ccc([C@H]2CCCc3ccccc3[C@]2(O)CCCN2CCOCC2)cc1` (relative stereo) [Compound 7], the melting point was 177.1 °C.

As for `CNCCCC1(O)c2ccccc2CCCC1c1ccccc1` (racemic) (as salt: oxalate) [Compound 19], the melting point was determined as 129 °C.

Consider `CN(C)CCC[C@@]1(O)c2ccccc2OCC[C@@H]1c1ccccc1` (relative stereo) (as salt: oxalate) [Compound 8], for which the melting point was 136 °C.

The compound `Cc1ccc(C2CCCc3ccccc3C2(O)CCCN(C)C)cc1` (racemic) (as salt: oxalate) [Compound 29] had a melting point of 161.8 °C.

In turn, `COc1cccc([C@H]2CCCc3ccccc3[C@]2(O)CCCN(C)C)c1` (racemic) (as salt: oxalate) [Compound 14, (±)cis-5-(3-Dimethylamino-propyl)-6-(3-methoxy-phenyl)-6,7,8,9-tetrahydro-5H-benzocyclohepten-5-ol oxalate] came in with a melting point of 108 °C.

In the case of `CN(C)CCC[C@@]1(O)c2ccccc2CCC[C@@H]1c1ccc(Cl)cc1` (racemic) [Compound 1], the minimal effective dose in the data set with NMRI-mice (setting [1]) and with NMRI-mice (setting [2]) was 2.5 mg/kg each time. The EC50 at GHS1A-receptor was 39.8 nM.

On to `CNCCCC1(O)c2ccccc2CCCC1c1ccc(C)cc1` (racemic) [Compound 27], for which the minimal effective dose with NMRI-mice (setting [1]) and in the data set on NMRI-mice (setting [2]) was more than 10 mg/kg throughout. Besides, the EC50 on GHS1A-receptor was 79.4 nM.

`CN(C)CCCC1(O)c2ccccc2CCCC1c1ccccc1` (single isomer, unassigned) (as salt: oxalate) [Compound 105] returned a melting point of 178 °C.

In the case of `COc1cncc(C2CCCc3ccccc3C2(O)CCCN(C)C)c1` (racemic) [Compound 83], the minimal effective dose in the data set on NMRI-mice (setting [1]) and in the data set with NMRI-mice (setting [2]) was more than 10 mg/kg in each case. Also, the EC50 at GHS1A-receptor was 631 nM.

Regarding `Cc1ccc([C@H]2CCCc3ccccc3[C@]2(O)CCCN(C)C)cn1` (racemic) [Compound 16, (±)cis-5-(3-Dimethylamino-propyl)-6-(6-methyl-pyridin-3-yl)-6,7,8,9-tetrahydro-5H-benzocyclohepten-5-ol hydrochloride], the minimal effective dose in the data set with NMRI-mice (setting [1]) was more than 10 mg/kg; with NMRI-mice (setting [2]) it was 10 mg/kg. The EC50 at GHS1A-receptor is 251 nM.

Consider `CCN(CC)CCCC1(O)c2ccccc2CCCC1c1ccc(Cl)cc1` (racemic) [Compound 46], for which the minimal effective dose with NMRI-mice (setting [1]) and in the data set with NMRI-mice (setting [2]) was 10 mg/kg throughout. In addition, at GHS1A-receptor, the EC50 was 200 nM.

For `COCCN(C)CCC[C@@]1(O)c2ccccc2CCC[C@@H]1c1ccc(Cl)cc1` (relative stereo) [Compound 13], the minimal effective dose in the data set on NMRI-mice (setting [1]) is more than 10 mg/kg; in the data set with NMRI-mice (setting [2]), 10 mg/kg. Besides, the EC50 at GHS1A-receptor is 251 nM.

`CN(C)CCCC1(O)c2ccccc2OCCC1c1ccc(F)c(F)c1` (racemic) [Compound 95]: the minimal effective dose with NMRI-mice (setting [1]) and in the data set with NMRI-mice (setting [2]) was more than 10 mg/kg in each case. For the same compound, at GHS1A-receptor, the EC50 was 50.1 nM.

For `CCN(CC)CCCC1(O)c2ccccc2OCCC1c1ccc(Cl)c(OC)c1` (racemic) [Compound 98], the minimal effective dose in the data set on NMRI-mice (setting [1]) and in the data set with NMRI-mice (setting [2]) was 10 mg/kg each time. Further, the EC50 on GHS1A-receptor is 10 nM.

As for `CC(=O)N1CCN(CCCC2(O)c3ccccc3CCCC2c2ccc(F)cc2F)CC1` (racemic) [Compound 60], the minimal effective dose with NMRI-mice (setting [1]) is 10 mg/kg; with NMRI-mice (setting [2]), more than 10 mg/kg. Further, at GHS1A-receptor, the EC50 was 3980 nM.

Regarding `CN(C)CCCC1(O)c2ccccc2CCCC1c1ccc(F)cc1` (racemic) [Compound 52], the minimal effective dose in the data set with NMRI-mice (setting [1]) and in the data set with NMRI-mice (setting [2]) was more than 10 mg/kg each time. Moreover, the EC50 at GHS1A-receptor was 12.6 nM.

With `CN(C)CCCC1(O)c2ccccc2CCCC1c1ccccc1` (racemic) [Compound 106], the minimal effective dose in the data set on NMRI-mice (setting [1]) and with NMRI-mice (setting [2]) was 10 mg/kg in each case. The EC50 on GHS1A-receptor was 63.1 nM.

As to `COc1cc(C2CCCc3ccccc3C2(O)CCCN2CCC(O)C2)ccc1Cl` (racemic) [Compound 73], the minimal effective dose in the data set on NMRI-mice (setting [1]) was 10 mg/kg; in the data set with NMRI-mice (setting [2]), more than 10 mg/kg. At GHS1A-receptor, the EC50 was 316 nM.

`OC1(CCCN2CCCC2)c2ccccc2CCCC1c1ccc(Cl)cc1` (racemic) [Compound 48]: the minimal effective dose in the data set on NMRI-mice (setting [1]) and with NMRI-mice (setting [2]) was more than 10 mg/kg each time. Moreover, at GHS1A-receptor, the EC50 was 31.6 nM.

For `CNCCCC1(O)c2ccccc2CCCC1c1cccc(C)c1` (racemic) [Compound 22], the minimal effective dose in the data set on NMRI-mice (setting [1]) and in the data set with NMRI-mice (setting [2]) was more than 10 mg/kg throughout. Further, the EC50 at GHS1A-receptor was 39.8 nM.

As to `CCN(CC)CCCC1(O)c2ccccc2CCCC1c1ccc(OC)c(OC)c1` (racemic) [Compound 78], the minimal effective dose in the data set with NMRI-mice (setting [1]) and in the data set on NMRI-mice (setting [2]) was more than 10 mg/kg in each case. The EC50 on GHS1A-receptor was 398 nM.

With `CC(C)NCCCC1(O)c2ccccc2CCCC1c1cncc(Cl)c1` (racemic) [Compound 82], the minimal effective dose in the data set on NMRI-mice (setting [1]) and in the data set on NMRI-mice (setting [2]) was more than 10 mg/kg in each case. The EC50 at GHS1A-receptor is 251 nM.

`COc1ccccc1C1CCOc2ccccc2C1(O)CCCN(C)C` (racemic) [Compound 96]: the minimal effective dose in the data set with NMRI-mice (setting [1]) and in the data set on NMRI-mice (setting [2]) was more than 10 mg/kg each time. In addition, the EC50 on GHS1A-receptor is 2000 nM.

Take `CNCCC[C@@]1(O)c2ccccc2OCC[C@@H]1c1ccc(C)cc1` [Compound 11]: the minimal effective dose with NMRI-mice (setting [1]) and in the data set on NMRI-mice (setting [2]) was more than 10 mg/kg each time. Further, the EC50 at GHS1A-receptor is 398 nM.

As for `COCCN(C)CCCC1(O)c2ccccc2CCCC1c1ccc(F)cc1F` (racemic) [Compound 58], the minimal effective dose in the data set with NMRI-mice (setting [1]) and with NMRI-mice (setting [2]) was more than 10 mg/kg throughout. The EC50 on GHS1A-receptor was 126 nM.

For `CCN(CC)CCCC1(O)c2ccccc2CCCC1c1ccc(F)cc1F` (racemic) [Compound 57], the minimal effective dose with NMRI-mice (setting [1]) and with NMRI-mice (setting [2]) was 10 mg/kg each time. In addition, the EC50 on GHS1A-receptor is 31.6 nM.

Regarding `CCN(CC)CCCC1(O)c2ccccc2CCCC1c1ccc(F)cc1` (racemic) [Compound 53], the minimal effective dose with NMRI-mice (setting [1]) and in the data set on NMRI-mice (setting [2]) was more than 10 mg/kg each time. Further, on GHS1A-receptor, the EC50 is 20 nM.

Turning to `CCN(CC)CCCC1(O)c2ccccc2CCCC1c1cccc(Cl)c1` (racemic) [Compound 41], the minimal effective dose in the data set on NMRI-mice (setting [1]) and in the data set on NMRI-mice (setting [2]) was more than 10 mg/kg throughout. Besides, the EC50 on GHS1A-receptor is 7.94 nM.

`CN(C)CCCC1(O)c2ccccc2CCCC1c1ccc2c(c1)OCO2` (racemic) [Compound 88]: the minimal effective dose with NMRI-mice (setting [1]) and in the data set on NMRI-mice (setting [2]) was more than 10 mg/kg throughout. In addition, the EC50 on GHS1A-receptor is 63.1 nM.

Take `CN(C)CCCC1(O)c2ccccc2OCCC1c1ccc(Cl)cc1` (racemic) [Compound 94]: the minimal effective dose in the data set on NMRI-mice (setting [1]) came out at 2.5 mg/kg; in the data set on NMRI-mice (setting [2]), 10 mg/kg. Besides, the EC50 on GHS1A-receptor is 31.6 nM.

For the compound `COc1cc(C2CCOc3ccccc3C2(O)CCCN(C)C)ccc1Cl` (racemic) [Compound 97], the minimal effective dose in the data set with NMRI-mice (setting [1]) and in the data set with NMRI-mice (setting [2]) was 2.5 mg/kg throughout. Further, the EC50 on GHS1A-receptor was 25.1 nM.

For orientation: melting point means the temperature of the solid-liquid transition.
